Assay results reported in ChEMBL document CHEMBL3507680, “University of Dundee, Gates Library screen for HepG2 cell viability”.

Experiment: Human HepG2 cell viability assay in 384 well format
Type: toxicity, cell-based
Parameters: dose 125 nL, time 70.5 hour; cytotoxicity at 70.5 h: concentration not given beside the values
Settings: HepG2 cells, read-out: Inhibition

SMILES | cytotoxicity at 70.5 h [%]
C=C(C)CN(CC)C(=O)CN(C)C1CCc2ccccc21 (centres undefined) | -2.32
COc1ccc(CNCc2c(C(C)C)nn(C)c2N(C)C)cn1 | 0.065
Cc1nc(-c2ccsc2)ccc1C(=O)NCCN1CCN(C)CC1 | 0.295
Cc1nc(-c2ccsc2)ccc1C(=O)NCCCN1CCOCC1 | -5.66
CCNC(=O)CN1CCN(Cc2nc3c(F)cccc3n2CC)CC1 | 0.0175
O=C(CN1CCC(c2ccccc2)C1)NCC(F)(F)F (centres undefined) | 1.22
O=C(Cc1c(F)cccc1Cl)N1CCC(Nc2cccnn2)CC1 | -1.25
CCNc1cc2c(nn1)CCN(C(=O)c1cccc(CSC)c1)C2 | -3.17
CCNc1cc2c(nn1)CCN(C(=O)c1ccc(C(N)=O)cc1)C2 | 20.2
COCC(c1cccc(C(F)(F)F)c1)N(C)C(=O)c1ccoc1 (centres undefined) | -3.47
Cc1noc(C)c1CC(=O)N1CCC(Nc2cccnn2)CC1 | 20.6
Cc1cnn(CCNCc2csc(-c3ccc(C(N)=O)cc3)n2)c1 | -1.79
Cc1cc(NC(=O)CN2CCn3c(nnc3C3CC3)C2)on1 | -2.62
O=C(CSc1ccccc1F)NS(=O)(=O)c1ccc2c(c1)OCCO2 | -0.308
Cc1noc(C)c1CC(=O)N1CCCN(Cc2cscn2)CC1 | -2.59
Cc1nc(C)n(CC2CCCCN2Cc2nc(-c3ccco3)no2)n1 (centres undefined) | -5.26
Cc1nn(C)c(N2CCOCC2)c1CNCc1cscn1 | -9.09
Cc1cc(C)n(CC2CCCN2C(=O)CCc2ccncc2)n1 (centres undefined) | -6.13
Cc1nc(CNCc2c(C(C)C)nn(C)c2N2CCOCC2)cs1 | -7.63
Cc1nc(C)n(CC2CCCN2Cc2nc(-c3ccsc3)no2)n1 (centres undefined) | 12.8
Cc1cccc(-c2noc(CN3CCOC(Cn4cccn4)C3)n2)c1 (centres undefined) | -11.5

SMILES | cytotoxicity at 70.5 h [%]
Cc1noc(C)c1CCC(=O)N1CCCN(Cc2cccs2)CC1 | -6
CSC(C)C(=O)NCc1ccnc(N2CCN(C)CC2)c1 (centres undefined) | -7.04
COc1ccc(CNCC2CNc3cc(C)nn3C2)cn1 (centres undefined) | -2.49
Cc1csc(N2CCN(C(=O)C3(C#N)CCCCC3)CC2)n1 | -9.16
CC(C(=O)NCc1ccc(N2CCN(C)CC2)nc1)n1cccn1 (centres undefined) | -6.16
Cc1cc2n(n1)CC(CNCc1ccc(Oc3ccccc3)nc1)CN2 (centres undefined) | 21.7
Cc1cc2n(n1)CC(CNCc1ccc(-n3cccn3)cc1)CN2 (centres undefined) | -0.128
CC(NCc1ccsc1)c1ccc2c(c1)NC(=O)CO2 (centres undefined) | -13.9
c1cncc(-c2noc(CN3CCOC(Cn4cccn4)C3)n2)c1 (centres undefined) | -4.62
Cc1nnc2n1CCN(Cc1ncc(-c3ccccc3)o1)C2 | -9.8
COC(=O)c1cc(C(=O)N2CCC(C)CC2)n(-c2ccccc2)n1 | -6.41
Cc1noc(C)c1C(C)C(=O)N1CCCN(Cc2cscn2)CC1 (centres undefined) | -9.23
CCc1nccn1C1CCCN(C(=O)c2ccc(NC3CC3)nc2)C1 (centres undefined) | -2.23
Cc1cc(C)n(CC2CCCN2C(=O)CCNc2ncccn2)n1 (centres undefined) | -4.55
O=C(c1ccc(NC2CC2)nc1)N1CCCC(n2ccnc2)C1 (centres undefined) | -12.9
CCc1nnc2n1CCN(Cc1ncc(-c3ccc(Cl)cc3)o1)C2 | -7.58
Cc1nnc2n1CCN(Cc1ncc(-c3ccc(F)cc3)o1)C2 | -1.84
Cc1ncc(CN2CCCN(Cc3noc(C4CC4)n3)CC2)s1 | 23.6
CC(C)OCCN1CCC(C(=O)c2cc(F)ccc2F)CC1 | 25
CCOCCN1CCC(C(=O)c2cc(F)ccc2F)CC1 | 17.7
CCc1ccc(C(=O)N2CCN(CC(O)CC)CC2)o1 (centres undefined) | 46.5

SMILES | cytotoxicity at 70.5 h [%]
Cc1nc(CN2CCCC(NCc3cnc(C(C)(C)C)s3)C2)no1 (centres undefined) | 2.91
O=C(CN1CCCC1c1noc(C2CC2)n1)N1CCc2ccccc21 (centres undefined) | -7.43
CCc1ncc2c(n1)CN(Cc1cccc(OCC(N)=O)c1)CC2 | 1.32
CN(C)CC(=O)N1CCN(CC(O)c2ccc(F)cc2)CC1 (centres undefined) | -1.76
O=C(c1ccc2c(c1)COC2)N1CCC(Nc2ccccc2)CC1 | 1.02
CCn1cnnc1CNC(=O)N1CCN(c2cccs2)CC1 | 25.1
COc1cccc(C(=O)Nc2cc(CC(C)C)nn2C)c1 | 3.59
FC(F)(F)COCCN1CCN(c2ccc3nncn3n2)CC1 | 1.24
COCCN1CCC(NCc2ccc(C#N)cc2)C1 (centres undefined) | 34.1
CCc1noc(CNc2ccc(C(=O)N3CCCC(C)C3)cc2C)n1 (centres undefined) | -10.5
NC(=O)c1cc(C2CCCN(C(=O)CCc3cscn3)C2)n[nH]1 (centres undefined) | -11.7
O=C1NCCN1C1CCN(Cc2nc(-c3ccoc3)no2)CC1 | 7.71
COc1c(C)cnc(CN2CCC(N(C)C(C)C(N)=O)CC2)c1C (centres undefined) | -2.64
CCC(=O)N(C)C1CCN(Cc2ncc(C)c(OC)c2C)CC1 | -17.3
Cc1nn(C)c(C)c1C1COCCN1C(=O)c1n[nH]c2ccccc12 (centres undefined) | -10.8
CN(Cc1ccsc1)C(=O)c1cccc(F)c1 | -9.63
CC(C)c1nnc(CN2CCCC2Cn2cncn2)o1 (centres undefined) | -11.1
O=C(c1cccn1Cc1cccs1)N1CCN(C(=O)C2CC2)CC1 | -20.1
c1cnnc(NCC2CN(Cc3cccc4c3OCCO4)CCO2)c1 (centres undefined) | -20.6
O=C(CS(=O)(=O)c1ccccc1Cl)NC1CCCCNC1=O (centres undefined) | -25.9
CC(C)N(C)S(=O)(=O)N(C)Cc1ccc2c(c1)OCO2 | 20.7

SMILES | cytotoxicity at 70.5 h [%]
CC(Cn1cccn1)NC(=O)Nc1nccs1 (centres undefined) | -21.9
CC(NC(=O)NCc1ccoc1)c1ccc2c(c1)CCC(=O)N2 (centres undefined) | 14.8
CC(C)CN1CCC(C(=O)Nc2cc(C(F)(F)F)c[nH]c2=O)CC1 | -6.4
CCOCCCn1c(NC(=O)c2scnc2C)nc2ccccc21 | 30.8
CC(C)CN1CCN(C(=O)Nc2cc(C(F)(F)F)c[nH]c2=O)CC1 | -17.9
CCOCCCn1c(NC(=O)c2cnn(C)c2)nc2ccccc21 | -13.3
CCOCCCn1c(NC(=O)c2ccc(C)nc2)nc2ccccc21 | -5.03
O=C(c1cccn1Cc1cccs1)N1CCN(C2CC2)CC1 | -10.4
CCn1c(C(=O)N2CCN(C(=O)COC)CC2)cc2ccccc21 | 26.3
COC(=O)C(NC(=O)c1ccco1)c1cc(F)ccc1F (centres undefined) | -15.6
CCOCC(O)CN1CCN(C(=O)c2cccnc2OC)CC1 (centres undefined) | -18
CNc1cc2c(nn1)CCN(C(=O)c1cccc3c1OCO3)C2 | -16.7
Cc1nn(C)c(C)c1C1COCCN1C(=O)c1ccccc1 (centres undefined) | 22.5
COc1ccccc1CC(=O)NS(=O)(=O)c1ccc(C(N)=O)cc1 | -12.7
CC(CNc1cncc(-n2cccn2)n1)N(C)c1ccccc1 (centres undefined) | 1.39
CN1N=C(C(=O)Nc2cc(F)ccc2OCC2CCCO2)CCC1=O (centres undefined) | -20.2
Nc1cc2c(nn1)CCN(C(=O)c1cccc3c1OCCO3)C2 | -14.7
CN(CC1(O)CCCCC1)C1CCCN(Cc2noc(C3CC3)n2)C1 (centres undefined) | 16.9
Cc1cnn(C2CN(CC(=O)NCc3ccccn3)C2)c1 | 16.5
Cc1cc(CN(C)C2CCCN(Cc3noc(C4CC4)n3)C2)no1 (centres undefined) | 11.8
CCOc1nnc(CN2CCC(N(C)Cc3noc(C)n3)C2)s1 (centres undefined) | -8.7
